Measurements taken from PubChem BioAssay AID179 (DTP/NCI, 2004).
Values joined by “and” are separate entries in the source; they are usually repeats but may differ in a detail not shown here. Equal values may be shown once. Active and inactive are the calls of the source.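 How the source made its calls: active means compounds giving half or more protection of infected cells from virus-caused growth loss, again on retest; inactive means the rest.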 Where a SMILES comes first, the peptide text is derived from it. Bridges are numbered along the chain shown (N, C = ends). [ ]: non-standard residue; d: D form. The star is where a group is joined. ξ: configuration not given here. PhAc = O=C(Cc1ccccc1)*; ξP = O=C(O)C1CCCN1

Test system: CEM cells HIV-1 protection, formazan growth assay
Test: NCI AIDS Antiviral Assay
Settings: for IC50: measured here: growth of uninfected CEM cells
Summary of the method: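 Protection of CEM cells against HIV-1 was scored from cell growth (soluble formazan) across five concentrations, with parallel uninfected cells. Lack of protection may reflect toxicity.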

Row | Structure (SMILES) | EC50 [µM] | IC50 | outcome
1 | CN(C)C(n1cc2c(c1)-c1ccc(Cl)cc1C(c1ccccc1F)=NC2)n1cc2c(c1)-c1ccc(Cl)cc1C(c1ccccc1F)=NC2 | > 100 | 95.5 µM | 
2 | CN1CCOC1(C)c1ccccc1O (centres undefined) | > 200 | > 200 µM | 
3 | CC1=C2C(=O)NN=C2CCN1c1ccc(Br)cc1 | > 200 | 34.7 µM | 
4 | NC(=O)C(=O)CC(=O)c1ccccc1NC1=CC(=O)C(=O)c2ccccc21 | > 20 | > 20 µM | 
5 | Nc1ccc(/C=C/c2ccc(N=Nc3ccc(/C=C/c4ccc(N)cc4S(=O)(=O)O)c(S(=O)(=O)O)c3)cc2S(=O)(=O)O)c(S(=O)(=O)O)c1 | 9.33 | 166 µM | 
6 | CC(C)CCCC(C)[C@H]1CC[C@H]2[C@@H]3CC[C@H]4C[C@@H](CCC=C(c5cc(Cl)c(OC(=O)C(C)(C)C)c(C(=O)O)c5)c5cc(Cl)c(OC(=O)C(C)(C)C)c(C(=O)O)c5)CC[C@]4(C)[C@H]3CC[C@]12C (some centres undefined) | 75.9 | > 100 µM | 
7 | COC(=O)c1cc(C(=O)OC)c(C/C(=N/NC(=O)C[N+](C)(C)C)C(=O)Nc2cccc(C(F)(F)F)c2)nc1C/C(=N/NC(=O)C[N+](C)(C)C)C(=O)Nc1cccc(C(F)(F)F)c1 | > 200 | 105 µM | 
8 | COC(=O)C(C(=O)C(=O)Nc1ccc([N+](=O)[O-])cc1[N+](=O)[O-])c1nc2ccc(Cl)cc2[nH]c1=O (centres undefined) | > 74.1 | 66.1 µM | 
9 | O=CNC(CSSCC(NC=O)C(=O)O)C(=O)O (centres undefined) | > 200 | > 200 µM | 
10 | COc1ccc(N=C2C(=Nc3ccc(OC)cc3)N(S(=O)(=O)c3ccccc3)C(=S)N2c2ccccc2)cc1 | > 200 | > 200 µM | 
11 | CC[C@]12C=CCN3CCC4(c5cc([C@]6(C(=O)OC)C[C@H]7CN(CCc8c6[nH]c6ccccc86)CC6CCCCC67)c(OC)cc5N(C)C4[C@@](O)(C(=O)OC)C1OC(C)=O)[C@@H]32 (some centres undefined) | > 89.1 | 1.7 µM | 
12 | O=C(O)C1(Cc2ccc3c(c2)CCC3)Cc2cc3c(cc2C1)CCC3 | > 200 | 35.5 µM | 
13 | O=C(O)c1ccccc1-c1c2cc(I)c(=O)c(I)c-2oc2c(I)c(O)c(I)cc12 | > 58.9 | 10.7 µM | 
14 | Cc1cc(S(=O)(=O)NC2=NCC(C)NN2)c(S)cc1Cl (centres undefined) | > 200 | 39.8 µM | 
15 | CC(C)(C)CC1=CC(=C2C=C(CC(C)(C)C)C(=O)C(CC(C)(C)C)=C2)C=C(CC(C)(C)C)C1=O | > 15.5 | > 15.5 µM | 
16 | CSc1nc(NC2OC(COC(C)=O)C(OC(C)=O)C(OC(C)=O)C2OC(C)=O)c(N=C(C)C(C)=O)c(=O)n1C (centres undefined) |  |  | inactive
17 | O=C1c2ccccc2C(c2ccccc2)(N2CCCCC2)N1c1ccccc1 (centres undefined) | > 17.4 | > 17.4 µM | 
18 | CCOC(=O)C1C2c3ccccc3C(c3ccccc32)C1C(=O)OCC (centres undefined) | > 200 | > 200 µM | 
19 | O=S1c2ccccc2N=C(c2ccc3ccccc3c2)CC1c1ccccc1F (centres undefined) | > 18.2 | > 18.2 µM | 
20 | CC(C)CC(NC(=O)c1ccccc1SC(=O)CCCC[n+]1ccccc1)C(N)=O (centres undefined) | 1.74 | 4.07 µM | 
21 | CC(C)CCC[C@@H](C)[C@H]1CC[C@H]2[C@@H]3CC=C4CC(OCCCCN(O)CCCSC5OC(CO)C(O)C(O)C5O)CC[C@]4(C)[C@H]3CC[C@]12C (some centres undefined) | > 200 | 35.5 µM | 
22 | c1ccc(CNc2nnc(NCc3ccccc3)c3c2ncn3Cc2ccccc2)cc1 |  |  | inactive
23 | CC1(SCC(N)C(=O)O)CC(=O)NC1=O (centres undefined) | > 200 | > 200 µM | 
24 | COc1cc(NCCN=C(N)NC#N)c2ncccc2c1 | > 126 | 89.1 µM | 
25 | Cc1cc2c(=O)c3ccc(Cl)cc3[nH]c2c(C(N)=O)c1C |  |  | inactive
26 | O=c1oc2c3ccc4ccccc4c3n(Cc3nc4ccccc4[nH]3)c2c2ccccc12 | > 8.32 | 4.68 µM | 

Row | Structure (SMILES) | EC50 [µM] | IC50 | outcome
27 | CC(=O)N1C=Cc2c(c(C)c3c([nH]c4ccccc43)c2C)C1 | > 200 | 0.158 µM | 
28 | C/C(=N/N=C(\[O-])c1ccncc1)C(F)(F)F.C/C(=N\N=C(/[O-])c1ccncc1)C(F)(F)F.[Ni+2] | > 200 | 89.1 µM | 
29 | CSc1nnc(CF)c(=O)[nH]1 | > 200 | > 200 µM | 
30 | Cn1cc(NC(=O)Nc2cc(C(=O)Nc3ccc4cc(S(=O)(=O)O)cc(S(=O)(=O)O)c4c3)n(C)c2)cc1C(=O)Nc1ccc2cc(S(=O)(=O)O)cc(S(=O)(=O)O)c2c1 | 79.4 | > 200 µM | 
31 | C=CCC(O)C1=CC(=O)c2c(O)ccc(O)c2C1=O (centres undefined) |  |  | inactive
32 | CCOC(=O)c1cn2ccccc2c(C(=O)c2cccnc2)c1=N | > 50.1 | > 50.1 µM | 
33 | Cc1ccc(-c2cc(=O)c(=O)[nH][nH]2)cc1 | > 200 | > 200 µM | 
34 | NC(=O)NC(=O)C(Cc1ccc(Cl)cc1)c1ccccc1 (centres undefined) | > 85.1 | > 85.1 µM | 
35 | COc1ccc(CCN2C(=O)CCC3=C2CCCC3=O)cc1OC | > 200 | > 200 µM | 
36 | CC1OC1C(=O)P(=O)(O)O (centres undefined) | > 200 | > 200 µM | 
37 | CCOC(=O)C(Cl)C1(O)Cc2cccc3cccc1c23 (centres undefined) | > 200 | 110 µM | 
38 | CC(=O)OC1Cn2ccc[n+]2C1 (centres undefined) | > 200 | > 200 µM | 
39 | O=C1C(Cl)C(c2ccc(Cl)cc2)N1n1cnc2ccccc2c1=O (centres undefined) | > 18.6 | > 18.6 µM | 
40 | Cn1cc(NC(=O)c2cc([N+](=O)[O-])cn2C)cc1C(=O)Nc1cc(S(=O)(=O)O)c2cc(S(=O)(=O)O)cc(S(=O)(=O)O)c2c1 | 275 | 347 µM | 
41 | CC(=O)OCC1OC(n2c(=O)n(-c3ccccc3)c(=O)c3ccccc32)C(OC(C)=O)C(OC(C)=O)C1OC(C)=O (centres undefined) | > 24 | > 24 µM | 
42 | CC1=NC(c2ccccc2)(C2(c3ccccc3)C(c3ccccc3)=C2c2ccccc2)C(=O)O1 (centres undefined) | > 6.17 | > 6.17 µM | 
43 | O=C(Cc1ccccc1)N[C@@H]1COC(=O)C2CCCN2C(=O)[C@@H]2CCCN2C1=O (some centres undefined) (PhAc-[dS]-Pro-[ξP]; ester 1-C) | > 200 | > 200 µM | 
44 | CCOC(=O)C1=NN(c2ccc(C)cc2)C2=CC(C)=NN(C)C(=S)N21 | > 200 | > 200 µM | 
45 | O=C(CN1CCN(Cc2ccccc2)CC1)c1ccc2[nH]c(=O)oc2c1 | > 200 | 158 µM | 
46 | Cn1c2cc(O)cc(O)c2c(=O)c2c([N+](=O)[O-])cccc21 | > 141 | > 141 µM | 
47 | COc1cc2c[n+](C)c3c4ccccc4ccc3c2cc1OC (tested in a mixture with another compound) | > 170 | 6.03 µM | 
48 | Cc1cc(C)c2c(c1N)C(=O)CCO2 |  |  | inactive
49 | COc1cc(/C=C/C(=O)CC(=O)/C=C/c2ccc(O)c(OC)c2)ccc1O (tested in a mixture with another compound) | > 200 | 3.31 µM | 
50 | O=C(/C=C/c1cc(Cl)cc(Cl)c1O)c1cccc(O)c1 |  |  | inactive
51 | O=C(c1cccc(OCc2ccccc2)c1OCc1ccccc1)N1CCSC1=S | > 200 | 9.12 µM | 
52 | CCN(CC)CCNc1nc(N)c(C#N)c(C#N)c1C#N | > 200 | 174 µM | 

Row | Structure (SMILES) | EC50 [µM] | IC50 | outcome
53 | CCN(CC)CC1CCCCN1CC(=O)N1c2ccccc2C(=O)Nc2cccnc21 (centres undefined) | > 200 | 32.4 µM | 
54 | CCCN(CCC)CC(=O)Nc1cccc(Cl)c1C | > 200 | 63.1 µM | 
55 | CCN(CC)CCOc1ccc(C(=C2CCCCC2)c2ccc(OCCN(CC)CC)cc2)cc1 | > 38.9 | 2.19 µM | 
56 | COc1cc2c3c(c1OC)/C(=N/OS(=O)(=O)c1ccc(C)cc1)CC3N(S(=O)(=O)c1ccc(C)cc1)CC2 (centres undefined) |  |  | inactive
57 | C[C@H](N)C(=O)N[C@@H]1[C@H]2C(=C(O)C[C@@H](O)[C@@H]2O)C(=O)O[C@@H]1C |  |  | inactive
58 | Nc1c(CCc2ccccn2)ccc2ccccc12 | > 200 | 166 µM | 
59 | O=[N+]([O-])c1cccc(/C=N/NC2=CS(=O)(=O)C=C2)c1 | > 67.6 | > 67.6 µM | 
60 | Cc1c2c(nc3ccccc13)C(=O)c1cccnc1C2=O | > 100 | 13.5 µM | 
61 | NC(=O)NCCCC(NC(=O)OCCCCCCn1ccc(=O)[nH]c1=O)C(=O)O (centres undefined) | > 200 | 32.4 µM | 
62 | O=C1NC2(CCCC2)C(=O)C12CCCC2 |  |  | inactive
63 | O=C(NNc1cn[nH]c(=O)c1Cl)/C(=C/c1ccc2c(c1)OCO2)NC(=O)c1ccccc1 | > 200 | 162 µM | 
64 | CCC(C)C(N)C(=O)NC(CC(N)=O)C(=O)NC(CC(C)C)C(=O)NC(CCCCN)C(=O)NC(C)C(=O)NC(CC(C)C)C(=O)NC(C)C(=O)NC(C)C(=O)NC(CC(C)C)C(=O)NC(C)C(=O)NC(CCCCN)C(=O)NC(CCCCN)C(=O)NC(C(=O)NC(CC(C)C)C(N)=O)C(C)CC (centres undefined) | 40.7 | 43.7 µM | 
65 | O=C(Nc1ccc(C(F)(F)F)cc1)NC(F)(F)F | > 200 | > 200 µM | 
66 | CC12C=C[C@]3(CC[C@@H]4[C@@](C)(CO)CCC[C@]4(C)C3CC1)C2 (some centres undefined) |  |  | inactive
67 | O=c1[nH]c(=O)n(C2CC(O)C(CO)O2)c2nc3ccc4ccccc4c3nc12 (centres undefined) | > 100 | 13.2 µM | 
68 | COc1ccc2c(c1)CCN=C2Cc1ccccc1CCCl | > 200 | 26.3 µM | 
69 | CCc1cc2c(O)c(c1)Cc1cc(CC)cc(c1O)Cc1cc(CC)cc(c1O)Cc1cc(CC)cc(c1O)Cc1cc(CC)cc(c1O)Cc1cc(CC)cc(c1O)Cc1cc(CC)cc(c1O)C2 | > 10 | > 10 µM | 
70 | CCCCCCCCCCCCCCCCOP(=O)(O)OCCC=C(c1cc(Cl)c(O)c(C(=O)O)c1)c1cc(Cl)c(O)c(C(=O)O)c1 | > 145 | 93.3 µM | 
71 | OC(CCN1CC2CCC(CC2)C1)(Cc1ccccc1)c1cccs1 (centres undefined) | > 200 | 47.9 µM | 
72 | O=C(O)c1nc2cc(Cl)ccc2[nH]c1=O | > 200 | > 200 µM | 
73 | Cc1ccc(C(=O)N2c3ccccc3N(C)n3cccc3C2CC(=O)O)cc1 (centres undefined) | > 661 | 148 µM | 
74 | CCOC(=O)c1c(C(=O)OC)nc2n1-c1ccccc1OC2 | > 832 | 64.6 µM | 
75 | COc1ccc(NC(=O)C2=CC(=O)c3ccc(O)cc3C2=O)c(OC)c1 | 75.9 | 708 µM | 
76 | CC(=O)OCC1OC(n2c(-c3ccccc3)c(N=Nc3ccc(Cl)cc3)c(C)c(C#N)c2=S)C(OC(C)=O)C(OC(C)=O)C1OC(C)=O (centres undefined) | > 200 | 24.5 µM and 95.5 µM | 
77 | CC(=O)N1CCC23c4ccccc4N(C)C2CC(=O)CC13 (centres undefined) | > 871 | > 871 µM | 
